# Reference: US20060154892A1, “Procedure to block the replication of reverse transcriptase dependent viruses by the use of inhibitors of deoxynucleotides synthesis” (priority 1993, published 2006)
# Where two headings read alike, the source gives them in different places.
# Key:
# HIV-1 IIIB [1] = test: expected p24 expression in HIV-1 IIIB infected PHA-stimulated PBL with hydroxyurea and/or nucleoside analogs (Example 10); assay type: cell-based
# Method: PBL isolated from healthy donors are stimulated with PHA and IL-2 for 48 hours using standard protocols. At the same time, the cells are pre-treated with hydroxyurea alone or in combination with either ddI or fluorinated derivatives of chain-terminating nucleosides.
# HIV-1 RT [2] = target: T1, HIV-1 RT (Human immunodeficiency virus type 1 group M subtype B, UniProt P04585); test: Km of HIV-1 RT for dNTP, 600-base globin mRNA template; assay type: biochemical; conditions: 600-base globin mRNA as template
# PBL [3] = conditions: doses corresponding to plasma concentrations in treated AIDS patients; cited from earlier work
# HIV-1 [4] = conditions: for effect on HIV-1 replication at the lowest levels: in some cases, only when used individually, FIG. 3
# Method: PBL from healthy donors were infected for 2 hour at 37° C. with HIV-1 [HTLV-IIIB] (m.o.i.=1) after 2 days stimulation with PHA and Interleukin-2 (IL-2). […] Every 3-4 days, supernatant was harvested for p24 analysis, cells were counted and fresh supernatant and drugs were added. Samples were analyzed for (a) p24 production in the supernatant, (b) count of viable cells, and (c) ratios between the values expressed in (a) and (b).
# PBL were isolated and stimulated for 2 days with PHA and IL-2. […] The extent of HIV-1 infection was analyzed as described in Example 5. Samples were tested for (a) p24 production in the supernatant, (b) viable cell count.
# HIV-1 [5] = system: HIV-1
# Text: In the latter procedure, we measured p24 production during the course of an in vitro infection to assess the inhibition of HIV-1 replication in activated PBL.
# PBL [6] = test: count of viable cells in HIV-1 infected activated PBL culture; assay type: cell-based, human; conditions: for Viable cells: PBMC, 1 mM Hydroxyurea
# [7] = system: primary human macrophages; conditions: for Viable cells: Macrophages
# [8] = cited from earlier work
# HIV-1 [9] = test: administration of hydroxyurea to HIV-1 seropositive volunteers, CD4+ T-cell count (Example 9); assay type: in vivo, human; conditions: 20-40 mg per kg per day, after one month of drug treatment
# Method: One or more HIV-1 seropositive volunteers are first identified. Blood samples drawn from the volunteers are assayed for CD4^+T-cells using any suitable quantitation means. Such quantitation means include, but are not limited to, the flow cytometer. Over a period of from several weeks to months, the number of CD4^+T-cells is observed to decrease steadily as an indicator of disease progression.
# The nucleoside analogs can be any of ddI, ddC or AZT, or combinations thereof.
# When hydroxyurea is used in conjunction with a nucleoside analog, the dosage of the analog is determined according to convention in the medical and pharmaceutical arts.
# After one month of drug treatment blood samples are again drawn and assayed for CD4^+T-cells.
# [10] = system: dNTP pools in PHA stimulated PBL; test: dNTP pools in HIV-1 infected PHA-stimulated PBL treated with hydroxyurea (enzyme assay); assay type: cell-based, human; conditions: 1 mM hydroxyurea
# Method: PBLs were cultured in the presence or absence of phytohemagglutinin A (PHA) at 10 μg/ml for 48 hours. Intracellular dNTP were extracted with 60% methanol and were examined by an enzyme assay using synthetic oligonucleotides (P. A. Sherman and A. J. Fyfe, 1989 Anal. Biochem. 180:222). Data represent the mean value of three experiments. […] The cellular volume of PBL was measured using a Coulter counter analizer and found to be approximately 0.25 μl/10^6 cells for quiescent PBL and 0.38 μl/10^6 cells for stimulated PBL, respectively.
# Cell aliquots were harvested 24, 48 and 72 hours after infection and analyzed for the rate of dNTP synthesis inhibition (Sherman and Fyfe, supra) measured as the percentage of dNTP levels compared to the control cells.
# HIV-1 IIIB [11] = conditions: for RT Activity: 1 mM hydroxyurea
# HIV-1 [HTLV-IIIB] = test: p24 production in activated PBL infected with HIV-1 [HTLV-IIIB], drugs added after infection; assay type: cell-based; conditions: for inhibition at 1000 µM: Human immunodeficiency virus 1, IIIB, PBMC
# HIV-1 RT [12] = target: T1, HIV-1 RT; test: in vitro activity of recombinant HIV-1 RT (primer extension assay); assay type: biochemical; conditions: 200 mM
# Method: We also assessed the in vitro activity of recombinant HIV-1 RT at dNTP concentrations that were equivalent to those found in quiescent and stimulated PBL. DNA was synthesized using a globin mRNA template and an oligo dT16 primer (a primer extension assay). The HIV-1 RT reaction mixture contained 50 mM Tris-HCl (pH 8.0), 6 mM MgCl2, 76 mM KCl, 0.5 mM DTT, 80 nM globin mRNA primed with oligo dT16 in 1:5 ratio, and dNTP at (a) the concentrations equivalent to quiescent cells and (b) the concentrations equivalent to stimulated cells as described in Table 1. Recombinant HIV-1 RT (obtained from American Biotechnologies) was used at 5 U/ml.
# HIV-1 strain Ba-L = test: p24 production in primary human macrophages infected with HIV-1 Ba-L; assay type: cell-based; conditions: for inhibition at 1000 µM: Human immunodeficiency virus 1, BAL, Macrophage
# Method: Macrophages were obtained by cell adhesion after purification of PBL from healthy donors. After 14 days treatment with granulocyte-macrophage-colony-stimulating factor, cells were infected overnight with the HIV-1 strain Ba-L (Gartner et al., Science 233:215 (1986)). […] Supernatants were harvested ever 4-5 days for p24 analysis and fresh supernatant and drugs were added.
# Percentages of HIV-1 inhibition were calculated based on p24 production compared to the untreated control. Drug treatment of macrophages was suspended after 14 days.
# [13] = nucleoside analog 20 μM, day 12
smiles,measurement,setting,value
Nc1ncnc2c1ncn2[C@@H]1O[C@H](CO)C[C@@H]1F [2′-F-dd-ara-A],p24 Expression after Infection,"HIV-1 IIIB [1]; nucleoside analog 20 μM, day 4",Low
same,p24 Expression after Infection,"HIV-1 IIIB [1]; nucleoside analog 20 μM, day 8",Medium
same,p24 Expression after Infection,HIV-1 IIIB [1]; [13],Medium
Nc1nc2c(ncn2[C@@H]2O[C@H](CO)C[C@@H]2F)c(=O)[nH]1 [2′-F-dd-ara-G],p24 Expression after Infection,"HIV-1 IIIB [1]; nucleoside analog 20 μM, day 4",Low
same,p24 Expression after Infection,"HIV-1 IIIB [1]; nucleoside analog 20 μM, day 8",Medium
same,p24 Expression after Infection,HIV-1 IIIB [1]; [13],Medium
O=c1[nH]cnc2c1ncn2[C@@H]1O[C@H](CO)C[C@@H]1F [2′-F-dd-ara-I],p24 Expression after Infection,"HIV-1 IIIB [1]; nucleoside analog 20 μM, day 4",Low
same,p24 Expression after Infection,"HIV-1 IIIB [1]; nucleoside analog 20 μM, day 8",Medium
same,p24 Expression after Infection,HIV-1 IIIB [1]; [13],Medium
Nc1ncnc2c1ncn2[C@H]1C[C@H](O)[C@@H](COP(=O)(O)OP(=O)(O)OP(=O)(O)O)O1 [dATP],Km,HIV-1 RT [2],2.6 µM
Nc1ccn([C@H]2C[C@H](O)[C@@H](COP(=O)(O)OP(=O)(O)OP(=O)(O)O)O2)c(=O)n1 [dCTP],Km,HIV-1 RT [2],3.8 µM
Nc1nc2c(ncn2[C@H]2C[C@H](O)[C@@H](COP(=O)(O)OP(=O)(O)OP(=O)(O)O)O2)c(=O)[nH]1 [dGTP],Km,HIV-1 RT [2],3.9 µM
Cc1cn([C@H]2C[C@H](O)[C@@H](COP(=O)(O)OP(=O)(O)OP(=O)(O)O)O2)c(=O)[nH]c1=O [dTTP],Km,HIV-1 RT [2],4 µM
"O=c1[nH]cnc2c1ncn2[C@H]1CC[C@@H](CO)O1 [ddI, didanosine]",cytotoxicity,PBL [3],low
same,effect on HIV-1 replication at the lowest levels,HIV-1 [4],stimulated HIV-1 replication
same,p24 after infection,"HIV-1 [5]; ddI 0.2 μM, day 4",4 ng/mL
same,p24 after infection,"HIV-1 [5]; ddI 0.2 μM, day 8",116 ng/mL
same,p24 after infection,"HIV-1 [5]; ddI 0.2 μM, day 12",197 ng/mL
same,p24 after infection,"HIV-1 [5]; ddI 1 μM, day 4",3 ng/mL
same,p24 after infection,"HIV-1 [5]; ddI 1 μM, day 8",90 ng/mL
same,p24 after infection,"HIV-1 [5]; ddI 1 μM, day 12",196 ng/mL
same,p24 after infection,"HIV-1 [5]; ddI 5 μM, day 4",1 ng/mL
same,p24 after infection,"HIV-1 [5]; ddI 5 μM, day 8",58 ng/mL
same,p24 after infection,"HIV-1 [5]; ddI 5 μM, day 12",125 ng/mL
same,p24 after infection,"HIV-1 [5]; ddI 20 μM, day 4",1 ng/mL
same,p24 after infection,"HIV-1 [5]; ddI 20 μM, day 8",25 ng/mL
same,p24 after infection,"HIV-1 [5]; ddI 20 μM, day 12",51 ng/mL
same,p24 Expression after Infection,"HIV-1 IIIB [1]; nucleoside analog 20 μM, day 4",Low
same,p24 Expression after Infection,"HIV-1 IIIB [1]; nucleoside analog 20 μM, day 8",Medium
same,p24 Expression after Infection,HIV-1 IIIB [1]; [13],Medium
NC(=O)NO [hydroxyurea],cytotoxic effects,"PBL [6]; 0.1 mM hydroxyurea, continuous exposure, FIG. 1b",some cytotoxic effects
same,toxicity,"PBL [6]; 1 mM hydroxyurea, activated PBL",toxic effects at these concentrations were observed early
same,Viable cells,PBL [6]; day 4,500 thousands/ml
same,Viable cells,PBL [6]; day 7,185 thousands/ml
same,Viable cells,PBL [6]; day 10,87 thousands/ml
same,Viable cells,PBL [6]; day 14,36 thousands/ml
same,cytostatic and cytotoxic effects,"PBL [6]; decreased drug concentration, FIG. 1b",virtually disappeared
same,cytotoxic effects,[7],no cytotoxic effects were observed
same,Viable cells,"[7]; 1 mM Hydroxyurea, day 4",300 thousands/cm^2
same,Viable cells,"[7]; 1 mM Hydroxyurea, day 7",280 thousands/cm^2
same,Viable cells,"[7]; 1 mM Hydroxyurea, day 10",270 thousands/cm^2
same,Viable cells,"[7]; 1 mM Hydroxyurea, day 14",270 thousands/cm^2
same,Viable cells,"[7]; day 21, drug suspension after 14 days",260 thousands/cm^2
same,Viable cells,"[7]; day 28, drug suspension after 14 days",240 thousands/cm^2
same,Viable cells,"[7]; day 35, drug suspension after 14 days",190 thousands/cm^2
same,effect on HIV-1 replication at the lowest levels,HIV-1 [4],stimulated HIV-1 replication
same,HIV-1 replication,"HIV-1 [4]; patient PBL, FIG. 3a",inhibited HIV-1 replication in a dose-dependent manner
same,p24 after infection,"HIV-1 [5]; HU 10 μM, day 4",4 ng/mL
same,p24 after infection,"HIV-1 [5]; HU 10 μM, day 8",100 ng/mL
same,p24 after infection,"HIV-1 [5]; HU 10 μM, day 12",204 ng/mL
same,p24 after infection,"HIV-1 [5]; HU 50 μM, day 4",3 ng/mL
same,p24 after infection,"HIV-1 [5]; HU 50 μM, day 8",113 ng/mL
same,p24 after infection,"HIV-1 [5]; HU 50 μM, day 12",148 ng/mL
same,p24 after infection,"HIV-1 [5]; HU 100 μM, day 4",2 ng/mL
same,p24 after infection,"HIV-1 [5]; HU 100 μM, day 8",111 ng/mL
same,p24 after infection,"HIV-1 [5]; HU 100 μM, day 12",116 ng/mL
same,blood concentration during standard clinical protocols,[8]; humans,~1000 µM
same,absorption,[8]; oral ingestion,readily absorbed after oral ingestion
same,CD4+ T-cell population,HIV-1 [9],stabilized or increased
same,p24 Expression after Infection,"HIV-1 IIIB [1]; HU 50 μM, day 4",Low
same,p24 Expression after Infection,"HIV-1 IIIB [1]; HU 50 μM, day 8",Medium
same,p24 Expression after Infection,"HIV-1 IIIB [1]; HU 50 μM, day 12",High
same,dNTP pools in stimulated PBL,[10],substantially depleted
same,RT Activity,HIV-1 IIIB [11]; day 2,0.892 cpm/ml × 1000
same,RT Activity,HIV-1 IIIB [11]; day 5,0.589 cpm/ml × 1000
same,RT Activity,HIV-1 IIIB [11]; day 9,0.434 cpm/ml × 1000
same,viral expression of RT,HIV-1 IIIB [11]; pre-infection treatment with 1 mM hydroxyurea,significantly reduced
same,inhibition at 1000 µM,HIV-1 [HTLV-IIIB]; 96 h,100%
same,inhibition at 1000 µM,HIV-1 [HTLV-IIIB]; 168 h,100%
same,inhibition at 1000 µM,HIV-1 [HTLV-IIIB]; 240 h,100%
same,inhibition at 1000 µM,HIV-1 [HTLV-IIIB]; 336 h,100%
same,HIV-1 replication,"HIV-1 [HTLV-IIIB]; continuous treatment with 1 mM hydroxyurea, activated PBL",completely blocked HIV-1 replication
same,"antiviral effect, p24 normalized to number of viable cells","HIV-1 [HTLV-IIIB]; low concentrations, FIG. 1c",not mediated by cytotoxicity
same,HIV-1 replication (p24 in supernatant),"HIV-1 [HTLV-IIIB]; used alone at low concentrations, FIG. 1a",inhibited in a dose-dependent manner
same,direct inhibition of RT enzymatic activity,HIV-1 RT [12],did not directly inhibit RT enzymatic activity
same,inhibition at 1000 µM,HIV-1 strain Ba-L; 96 h,100%
same,inhibition at 1000 µM,HIV-1 strain Ba-L; 168 h,100%
same,inhibition at 1000 µM,HIV-1 strain Ba-L; 240 h,100%
same,inhibition at 1000 µM,HIV-1 strain Ba-L; 336 h,100%
same,HIV-1 replication,"HIV-1 strain Ba-L; continuous treatment with 1 mM hydroxyurea, macrophages",completely blocked HIV-1 replication
same,block of HIV-1 replication,"HIV-1 strain Ba-L; hydroxyurea as low as 0.05 mM, macrophages",> 99.9%
same,HIV-1 replication after discontinuing the drug treatment,"HIV-1 strain Ba-L; infected macrophages, several weeks after discontinuing, in some experiments",absence of HIV-1 replication
same,dose-dependent inhibition of HIV-1 production in macrophages compared with PBL,HIV-1 strain Ba-L; same donor for PBL and macrophages,consistently more potent than with primary PBL
